Results reported in patent US4740233A, “Substituted 1,2,4-triazolo[1,5-a]-pyrimidine-2-sulfonamides and compositions and methods of controlling undesired vegetation and suppressing the nitrification of ammonium nitrogen in soil” (The Dow Chemical Company, priority 1986, dated 1988).

Key:
[1] = tested on: cotton; test: Preemergent control of plant species; format: in vivo, Gossypium spp.; details: Gossypium hirsutum, pre-emergence, 336 h; 0.25 lb/acre; read-out: percent preemergent control
How it was run: (§1)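 Growth reduction relative to untreated plants of the same species, assessed two weeks after treatment, defines the control value. Compositions, mostly aqueous emulsions, were deposited uniformly on seeded greenhouse soil beds at the tabulated rates, with a water-treated bed as reference.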

[2] = tested on: rape; test: Preemergent control of plant species; format: in vivo, Brassica napus; details: Brassica napus, pre-emergence, 336 h; 0.25 lb/acre; read-out: percent preemergent control
How it was run: as §1

[3] = tested on: soybean; test: Preemergent control of plant species; format: in vivo, Glycine max.; details: Glycine max, pre-emergence, 336 h; 0.25 lb/acre; read-out: percent preemergent control
How it was run: as §1

[4] = tested on: sugar beet; test: Preemergent control of plant species; format: in vivo, Beta saccharifera; details: Beta vulgaris, pre-emergence, 336 h; 0.25 lb/acre; read-out: percent preemergent control
How it was run: as §1

[5] = tested on: jimsonweed; test: Preemergent control of plant species; format: in vivo, Datura stramonium; details: Datura stramonium, pre-emergence, 336 h; 0.25 lb/acre; read-out: percent preemergent control
How it was run: as §1

[6] = tested on: annual morning glory; test: Preemergent control of plant species; format: in vivo, Ipomoea spp.; details: Ipomoea, pre-emergence, 336 h; 0.25 lb/acre; read-out: percent preemergent control
How it was run: as §1

[7] = tested on: velvetleaf; test: Preemergent control of plant species; format: in vivo, Abutilon theophrasti; details: Abutilon theophrasti, pre-emergence, 336 h; 0.25 lb/acre; read-out: percent preemergent control
How it was run: as §1

[8] = tested on: corn; test: Preemergent control of plant species; format: in vivo, Zea mays; details: Zea mays, pre-emergence, 336 h; 0.25 lb/acre; read-out: percent preemergent control
How it was run: as §1

[9] = tested on: rice; test: Preemergent control of plant species; format: in vivo, Oryza sativa; details: Oryza sativa, pre-emergence, 336 h; 0.25 lb/acre; read-out: percent preemergent control
How it was run: as §1

[10] = tested on: sorghum; test: Preemergent control of plant species; format: in vivo, Sorghum vulgare; details: Sorghum, pre-emergence, 336 h; 0.25 lb/acre; read-out: percent preemergent control
How it was run: as §1

[11] = tested on: wheat; test: Preemergent control of plant species; format: in vivo, Triticum aestivum; details: Triticum aestivum, pre-emergence, 336 h; 0.25 lb/acre; read-out: percent preemergent control
How it was run: as §1

[12] = tested on: barnyardgrass; test: Preemergent control of plant species; format: in vivo, Echinochloa crusgalli; details: Echinochloa crus-galli, pre-emergence, 336 h; 0.25 lb/acre; read-out: percent preemergent control
How it was run: as §1

[13] = tested on: johnson grass; test: Preemergent control of plant species; format: in vivo, Sorghum halepense; details: Sorghum halepense, pre-emergence, 336 h; 0.25 lb/acre; read-out: percent preemergent control
How it was run: as §1

[14] = tested on: wild oats; test: Preemergent control of plant species; format: in vivo; details: Avena fatua, pre-emergence, 336 h; 0.25 lb/acre; read-out: percent preemergent control
How it was run: as §1

[15] = tested on: yellow foxtail; test: Preemergent control of plant species; format: in vivo, Setaria lutescens; details: Setaria, pre-emergence, 336 h; 0.25 lb/acre; read-out: percent preemergent control
How it was run: as §1

[16] = tested on: yellow nutsedge; test: Preemergent control of plant species; format: in vivo, Cyperus esculentus; details: Cyperus, pre-emergence, 336 h; 0.25 lb/acre; read-out: percent preemergent control
How it was run: as §1

[17] = tested on: nitrification of ammonium nitrogen; test: Suppression of nitrification of ammonium nitrogen in soil; details: 27° C.
How it was run: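 Soil (20 g) moistened to its 1/3 bar tension value, mixed with test chemical and incubated sealed for two weeks at 27° C. Nitrate extracted with ammonium sulfate solution and measured by nitrate-specific ion electrode; value given as % NH4-N remaining.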

| Compound | plant injury at 280.212 g/ha [1] [%] | plant injury at 280.212 g/ha [2] [%] | plant injury at 280.212 g/ha [3] [%] | plant injury at 280.212 g/ha [4] [%] | pest or weed control at 280.212 g/ha [5] [%] | pest or weed control at 280.212 g/ha [6] [%] | pest or weed control at 280.212 g/ha [7] [%] | plant injury at 280.212 g/ha [8] [%] | plant injury at 280.212 g/ha [9] [%] | plant injury at 280.212 g/ha [10] [%] | plant injury at 280.212 g/ha [11] [%] | pest or weed control at 280.212 g/ha [12] [%] | pest or weed control at 280.212 g/ha [13] [%] | pest or weed control at 280.212 g/ha [14] [%] | pest or weed control at 280.212 g/ha [15] [%] | pest or weed control at 280.212 g/ha [16] [%] | % NH4-N Remaining After 2 Weeks Incubation ([17]; 0.06 ppm) [%] | % NH4-N Remaining After 2 Weeks Incubation ([17]; 0.25 ppm) [%] | % NH4-N Remaining After 2 Weeks Incubation ([17]; 1 ppm) [%] | % NH4-N Remaining After 2 Weeks Incubation ([17]; 4 ppm) [%] |
| --- | --- | --- | --- | --- | --- | --- | --- | --- | --- | --- | --- | --- | --- | --- | --- | --- | --- | --- | --- | --- |
| COc1ccn2nc(S(=O)(=O)Nc3c(Cl)cccc3Cl)nc2n1 [Compound 208] | 100 | 100 | 45 | 100 | 90 | 40 | 90 | 0 | 0 | 30 | 0 | 0 | 0 | 0 | 0 | 60 | 38 | 38 | 42 | 37 |
| C=CCOC(=O)c1cccc(C)c1NS(=O)(=O)c1nc2nc(C)cc(C)n2n1 [Compound 76] | 60 | 100 | 95 | 100 | 100 | 90 | 100 | 100 | 70 | 90 | 100 | 70 | 80 | 90 | 90 | 100 | 34 | 52 | 74 | 86 |
| CC(C)=NOC(=O)c1cccc(C)c1NS(=O)(=O)c1nc2nc(C)cc(C)n2n1 [Compound 78] | 0 | 100 | 30 | 70 | 0 | 0 | 30 | 10 | 40 | 0 | 40 | 20 | 0 | 30 | 20 | 50 | 74 | 32 | 53 | 72 |
